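Five compound concentrations were applied to cells in 96-well plates for 48 hours; endpoints were derived by simple linear interpolation of the resulting dose-response curve. At the TGI there is no net growth.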 Where a SMILES comes first, the peptide text is derived from it. [ ]: non-standard residue; d: D form. Phe(4-NO2) = N[CH](Cc1ccc([N+](=O)[O-])cc1)C(=O)O
Experiments:
Assay in all cases: NCI tumour cell line growth inhibition, 48 h
UO-31 renal = tested on: UO-31 renal
SNB-75 CNS = tested on: SNB-75 CNS
PC-3 prostate = tested on: PC-3 prostate
T-47D breast = tested on: T-47D breast
K-562 leukemia = tested on: K-562 leukemia
HCC-2998 colon = tested on: HCC-2998 colon
NCI-H226 lung = tested on: NCI-H226 lung
CAKI-1 renal = tested on: CAKI-1 renal
SK-MEL-2 melanoma = tested on: SK-MEL-2 melanoma
SW-620 colon = tested on: SW-620 colon
DU-145 prostate = tested on: DU-145 prostate
IGROV1 ovarian = tested on: IGROV1 ovarian
CCRF-CEM leukemia = tested on: CCRF-CEM leukemia
HOP-92 NSCLC = tested on: HOP-92 NSCLC
SF-268 CNS = tested on: SF-268 CNS
SK-MEL-28 melanoma = tested on: SK-MEL-28 melanoma
OVCAR-3 ovarian = tested on: OVCAR-3 ovarian
MDA-MB-231 breast = tested on: MDA-MB-231 breast
SK-MEL-5 melanoma = tested on: SK-MEL-5 melanoma
MALME-3M melanoma = tested on: MALME-3M melanoma

Structure (SMILES) | TGI (UO-31 renal) [µM] | TGI (SNB-75 CNS) [µM] | TGI (PC-3 prostate) [µM] | TGI (T-47D breast) [µM] | TGI (K-562 leukemia) [µM] | TGI (HCC-2998 colon) [µM] | TGI (NCI-H226 lung) [µM] | TGI (CAKI-1 renal) [µM] | TGI (SK-MEL-2 melanoma) [µM] | TGI (SW-620 colon) [µM] | TGI (DU-145 prostate) [µM] | TGI (IGROV1 ovarian) [µM] | TGI (CCRF-CEM leukemia) [µM] | TGI (HOP-92 NSCLC) [µM] | TGI (SF-268 CNS) [µM] | TGI (SK-MEL-28 melanoma) [µM] | TGI (OVCAR-3 ovarian) [µM] | TGI (MDA-MB-231 breast) [µM] | TGI (SK-MEL-5 melanoma) [µM] | TGI (MALME-3M melanoma) [µM]
[N-]=[N+]=Nc1c(Cl)c(Cl)nc2ccccc12 | > 100 | > 100 | > 100 | > 100 | > 100 | > 100 | > 100 | 57.8 | > 100 | > 100 | > 100 | > 100 | > 100 | > 100 | > 100 | > 100 | > 100 | > 100 | > 100 | > 100
CC(NC(=O)C(Cc1ccc([N+](=O)[O-])cc1)NC(=O)C(N)CCCCN)C(=O)NC(Cc1ccc([N+](=O)[O-])cc1)C(N)=O (stereo not given) (H-K[Phe(4-NO2)]A[Phe(4-NO2)]-NH2; configuration not given here) | > 66.6 | > 100 | > 100 | > 80.8 | > 55.3 | > 64.8 | > 100 | > 100 | > 86.6 | > 100 | > 100 | > 100 | > 100 | 70.5 | > 100 | > 100 | > 100 | > 69.9 | 51.5 | > 83.7
CCOC(=O)CCSc1nc2ccc(I)cc2c(=O)n1Cc1ccccc1 | 1.42 | > 100 | > 100 | > 100 | > 100 | > 71.2 | > 100 | 9.59 | > 100 | > 100 | > 100 | > 100 | 67.4 | 53.5 | > 91.2 | > 100 | > 84.5 | > 100 | 32 | 48.4
C#C/C=C\CCCCCCCCCCCCCC/C=C\CCCCC#CC(O)C#CCCCC/C=C\CCCCCC/C=C/C(O)C#C (stereo not given) | 37.4 | > 75 | > 57.7 | 26 | > 75 | 37 | > 59.4 | 18.1 | 37.1 | > 52.9 | > 75 | 31 | > 47.5 | 36.8 | 44.4 | > 72 | > 55.1 | > 75 | 17.6 | 33.8
NC(=O)c1ncn(C2OC(CO)C(O)C2O)c1NC=O (stereo not given) | > 100 | > 100 | > 100 | > 100 | > 100 | > 100 | > 100 | > 100 | > 100 | > 100 | > 100 | > 100 | > 100 | > 100 | > 100 | > 100 | > 100 | > 100 | > 100 | > 100
Cc1occc1C(=S)Nc1ccc(Cl)c(/C=N/OC(C)(C)C)c1 | 27 | 56.7 | 33 | 42.6 | > 100 | 34.2 | 32.4 | 41.1 | 39.5 | 36.9 | 48.7 | > 56.3 | 53.4 | 26.5 | 54.8 | 34.4 | 31.3 | 42.3 | 33.4 | > 56.5
COC(=O)c1ccccc1CC(Cc1ccc2c(c1)CCC2)C(=O)OC (stereo not given) | > 100 | > 100 | > 100 | > 100 | > 100 | > 100 | > 100 | > 100 | > 100 | > 100 | > 100 | > 100 | > 100 | > 100 | > 100 | > 100 | > 100 | > 100 | 84.1 | > 100
O=C(O)c1cc(=O)c2c(OCC(O)COc3cccc4oc(C(=O)O)cc(=O)c34)cccc2o1 | > 100 | > 100 | > 100 | > 100 | > 100 | > 100 | > 100 | > 100 | > 79.2 | > 100 | > 100 | > 94.9 | > 100 | > 93.8 | > 100 | > 100 | > 100 | > 100 | 99.2 | > 100
C[C@]12CC[C@H]3[C@@H](CC=C4C[C@@H](O)CC[C@@]43C)[C@@H]1C/C(=C/c1ccccc1)[C@@H]2O | > 62 | > 68.5 | > 57.2 | > 59.1 | > 100 | > 60.3 | 66.1 | > 58.9 | 57.9 | > 100 | > 64.2 | 43.9 | > 100 | > 69.6 | 89.2 | > 91.2 | 43.3 | > 76.9 | > 100 | 79.4
